{"source": "patent US20210386729A1", "about": "“METHODS FOR TREATING LIVER DISORDERS USING FXR AGONISTS” (NOVARTIS AG, priority 2016, published 2021)", "key": {"FGF15": {"test_system": "FGF15", "experiment": "Serum FGF15 (MSD assay) in chronic rat ANIT-induced cholestasis model", "assay_type": "in vivo", "settings": "chronic treatment rat ANIT model", "method": "Serum FGF15 levels were quantified using an FGF15 Meso Scale Discovery (MSD) assay. Mouse FGF15 antibody from R&D Systems (AF6755) was used both as capture and detection antibody in the assay. MSD SULFO-TAG NHS-Ester was used to label the FGF15 antibody. MSD standard 96-well plates were coated with the FGF15 capture antibody and the plates were blocked with MSD Blocker A (R93AA-2). After washing the plate with PBS+0.05% Tween 20, MSD diluent 4 was dispensed into each well and incubated for 30 min. 25 μl of calibrator dilutions or samples (serum or EDTA plasma) were dispensed into each well and incubated with shaking at RT. After washing, detection antibody was added and incubated with shaking for 1 h at RT. After washing and the addition of MSD Read buffer (R92TC-2), the plate was read on an MSD SECTOR Imager 6000. Plots of the standard curve and unknown samples were calculated using MSD data analysis software.\nActivation of FXR in the ileum induces the expression of fibroblast growth factor 15 (FGF15 in rodent; FGF19 in human), a hormone that is secreted in the portal blood and signals to the liver to repress Cyp7a1 expression synergistically with SHP. The direct FXR-dependent induction of FGF15/19 along with FGF15/19's anti-cholestatic properties makes it a convenient serum biomarker for detecting target engagement of FXR agonists."}, "[1]": {"experiment": "Pharmacokinetics in the chronic 2 week rat ANIT-induced cholestasis model", "assay_type": "in vivo", "settings": "male, Wistar, po, day 13, serum; for AUC(0-t): read-out: AUC 0-24 hr", "method": "Male Wistar rats were treated with ANIT (0.1% ANIT in chow diet) for 2 weeks. […] The serum samples were collected on day 14 for analysis of biomarkers of hepatobiliary injury (including ALT, AST, bilirubin and bile acids). […] The mean biomarker data were compared to the PK data (average concentration at each dose) for the modeling. The IC80 was determined using the Inhibitory effect Imax model (effect C=0 at Imax, C=infinity at E0) built in Phoenix WinNonlin 6.3 software. […] Therefore, we chose to use a mean of the IC80 for the four biomarkers (total bilirubin, total bile acids, ALT and AST) as the IC80 for efficacy in this model.\nND=not determined. Data are presented as mean (n=3/group)."}, "[2]": {"experiment": "Multiple oral dose plasma pharmacokinetics in healthy subjects", "assay_type": "in vivo, human", "settings": "for Cmax / AUC / Tmax: human, plasma"}, "[3]": {"experiment": "In vitro potency, human vs rat"}, "[4]": {"experiment": "Protein binding, human vs rat", "assay_type": "in vitro ADME"}, "[5]": {"settings": "healthy subjects, 10 μg qd, Day 1, plasma, mean"}, "[6]": {"settings": "healthy subjects, 10 μg qd, Day 13, plasma, mean"}, "[7]": {"settings": "healthy subjects, 30 μg qd, Day 1, plasma, mean"}, "[8]": {"settings": "healthy subjects, 30 μg qd, Day 13, plasma, mean"}, "[9]": {"settings": "healthy subjects, 60 μg qd, Day 1, plasma, mean"}, "[10]": {"settings": "healthy subjects, 60 μg qd, Day 13, plasma, mean"}, "[11]": {"settings": "healthy subjects, 100 μg qd, Day 1, plasma, mean"}, "[12]": {"settings": "healthy subjects, 100 μg qd, Day 13, plasma, mean"}}, "note": "Entries after “also recorded” stand apart in the source; their conditions may differ. Like-named read-outs stand apart in the source and are kept apart here.", "data": [{"smiles": "O=C(O)c1cc(F)c2nc(N3C4CC[C@H]3CC(OCc3c(-c5ccccc5OC(F)(F)F)noc3C3CC3)C4)sc2c1", "note": "(some centres unmarked) [Compound A]", "values": [{"measurement": "serum FGF15 levels", "setting": "FGF15", "result": "stimulated serum FGF15 expression; also recorded: Significant dose-dependent induction"}, {"measurement": "Cmax", "setting": "[1]; 0.01 mg/kg", "result": 0.39, "unit": "ng/mL"}, {"measurement": "AUC(0-t)", "setting": "[1]; 0.01 mg/kg", "result": 3.49, "unit": "ng·h/mL"}, {"measurement": "Cmax", "setting": "[1]; 0.05 mg/kg", "result": 2.28, "unit": "ng/mL"}, {"measurement": "Cmax", "setting": "[1]; 0.25 mg/kg", "result": 15.6, "unit": "ng/mL"}, {"measurement": "AUC(0-t)", "setting": "[1]; 0.25 mg/kg", "result": 158, "unit": "ng·h/mL"}, {"measurement": "Cmax", "setting": "[1]; 1.0 mg/kg", "result": 52, "unit": "ng/mL"}, {"measurement": "AUC(0-t)", "setting": "[1]; 1.0 mg/kg", "result": 582, "unit": "ng·h/mL"}, {"measurement": "Racc", "setting": "[2]; [5]", "result": 1.00}, {"measurement": "Tlast", "setting": "[2]; [5]", "result": 23.9, "unit": "h"}, {"measurement": "Racc", "setting": "[2]; [6]", "result": 1.87}, {"measurement": "Tlast", "setting": "[2]; [6]", "result": 23.6, "unit": "h"}, {"measurement": "Racc", "setting": "[2]; [7]", "result": 1.00}, {"measurement": "Tlast", "setting": "[2]; [7]", "result": 23.9, "unit": "h"}, {"measurement": "Racc", "setting": "[2]; [8]", "result": 1.21}, {"measurement": "Tlast", "setting": "[2]; [8]", "result": 23.6, "unit": "h"}, {"measurement": "Racc", "setting": "[2]; [9]", "result": 1.00}, {"measurement": "Tlast", "setting": "[2]; [9]", "result": 23.9, "unit": "h"}, {"measurement": "Racc", "setting": "[2]; [10]", "result": 1.66}, {"measurement": "Tlast", "setting": "[2]; [10]", "result": 22.3, "unit": "h"}, {"measurement": "Racc", "setting": "[2]; [11]", "result": 1.00}, {"measurement": "Tlast", "setting": "[2]; [11]", "result": 23.9, "unit": "h"}, {"measurement": "Racc", "setting": "[2]; [12]", "result": 1.41}, {"measurement": "Tlast", "setting": "[2]; [12]", "result": 23.6, "unit": "h"}, {"measurement": "Cmax", "setting": "[2]; oral, 10 μg, average Cmax at day 13 for a dose level of 10 μg, exposures for the doses 10-100 μg normalized to 10 μg", "result": 0.32, "unit": "ng/mL"}, {"measurement": "AUC", "setting": "[2]; oral, 10 μg, exposures for the doses 10-100 μg normalized to 10 μg, read-out: average AUCtau at day 13 for a dose level of 10 μg", "result": 4.84, "unit": "ng·h/mL"}, {"measurement": "AUC", "setting": "[2]; oral, 10 ug, healthy subjects, 10 μg qd, Day 1, plasma, mean, read-out: AUCtau", "result": 2.88, "unit": "ng·h/mL"}, {"measurement": "Cmax", "setting": "[2]; oral, 10 ug, healthy subjects, 10 μg qd, Day 1, plasma, mean, read-out: Cmax", "result": 0.212, "unit": "ng/mL"}, {"measurement": "Tmax", "setting": "[2]; oral, 10 ug, healthy subjects, 10 μg qd, Day 1, plasma, median, read-out: Tmax", "result": 4, "unit": "h"}, {"measurement": "AUC", "setting": "[2]; oral, 10 ug, healthy subjects, 10 μg qd, Day 13, plasma, mean, read-out: AUCtau", "result": 4.88, "unit": "ng·h/mL"}, {"measurement": "Cmax", "setting": "[2]; oral, 10 ug, healthy subjects, 10 μg qd, Day 13, plasma, mean, read-out: Cmax", "result": 0.319, "unit": "ng/mL"}, {"measurement": "Tmax", "setting": "[2]; oral, 10 ug, healthy subjects, 10 μg qd, Day 13, plasma, median, read-out: Tmax", "result": 4, "unit": "h"}, {"measurement": "AUC", "setting": "[2]; oral, 30 ug, healthy subjects, 30 μg qd, Day 1, plasma, mean, read-out: AUCtau", "result": 11.7, "unit": "ng·h/mL"}, {"measurement": "Cmax", "setting": "[2]; oral, 30 ug, healthy subjects, 30 μg qd, Day 1, plasma, mean, read-out: Cmax", "result": 0.894, "unit": "ng/mL"}, {"measurement": "Tmax", "setting": "[2]; oral, 30 ug, healthy subjects, 30 μg qd, Day 1, plasma, median, read-out: Tmax", "result": 6, "unit": "h"}, {"measurement": "AUC", "setting": "[2]; oral, 30 ug, healthy subjects, 30 μg qd, Day 13, plasma, mean, read-out: AUCtau", "result": 14, "unit": "ng·h/mL"}, {"measurement": "Cmax", "setting": "[2]; oral, 30 ug, healthy subjects, 30 μg qd, Day 13, plasma, mean, read-out: Cmax", "result": 0.943, "unit": "ng/mL"}, {"measurement": "Tmax", "setting": "[2]; oral, 30 ug, healthy subjects, 30 μg qd, Day 13, plasma, median, read-out: Tmax", "result": 4, "unit": "h"}, {"measurement": "AUC", "setting": "[2]; oral, 60 ug, healthy subjects, 60 μg qd, Day 1, plasma, mean, read-out: AUCtau", "result": 16.2, "unit": "ng·h/mL"}, {"measurement": "Cmax", "setting": "[2]; oral, 60 ug, healthy subjects, 60 μg qd, Day 1, plasma, mean, read-out: Cmax", "result": 1.22, "unit": "ng/mL"}, {"measurement": "Tmax", "setting": "[2]; oral, 60 ug, healthy subjects, 60 μg qd, Day 1, plasma, median, read-out: Tmax", "result": 4, "unit": "h"}, {"measurement": "AUC", "setting": "[2]; oral, 60 ug, healthy subjects, 60 μg qd, Day 13, plasma, mean, read-out: AUCtau", "result": 25.3, "unit": "ng·h/mL"}, {"measurement": "Cmax", "setting": "[2]; oral, 60 ug, healthy subjects, 60 μg qd, Day 13, plasma, mean, read-out: Cmax", "result": 1.61, "unit": "ng/mL"}, {"measurement": "Tmax", "setting": "[2]; oral, 60 ug, healthy subjects, 60 μg qd, Day 13, plasma, median, read-out: Tmax", "result": 4, "unit": "h"}, {"measurement": "AUC", "setting": "[2]; oral, 100 ug, healthy subjects, 100 μg qd, Day 1, plasma, mean, read-out: AUCtau", "result": 30.3, "unit": "ng·h/mL"}, {"measurement": "Cmax", "setting": "[2]; oral, 100 ug, healthy subjects, 100 μg qd, Day 1, plasma, mean, read-out: Cmax", "result": 2.4, "unit": "ng/mL"}, {"measurement": "Tmax", "setting": "[2]; oral, 100 ug, healthy subjects, 100 μg qd, Day 1, plasma, median, read-out: Tmax", "result": 4, "unit": "h"}, {"measurement": "AUC", "setting": "[2]; oral, 100 ug, healthy subjects, 100 μg qd, Day 13, plasma, mean, read-out: AUCtau", "result": 50.2, "unit": "ng·h/mL"}, {"measurement": "Cmax", "setting": "[2]; oral, 100 ug, healthy subjects, 100 μg qd, Day 13, plasma, mean, read-out: Cmax", "result": 3.47, "unit": "ng/mL"}, {"measurement": "Tmax", "setting": "[2]; oral, 100 ug, healthy subjects, 100 μg qd, Day 13, plasma, median, read-out: Tmax", "result": 4, "unit": "h"}, {"measurement": "Tmax", "setting": "[2]; po, once daily oral dosing 10-100 μg, fasted, post-dose, read-out: Tmax range", "result": "3 to 10", "unit": "h"}, {"measurement": "Tmax", "setting": "[2]; po, once daily oral dosing for 13 days, fasted, Day 13, across all doses, read-out: median Tmax", "result": 4, "unit": "h"}, {"measurement": "dose proportionality of Cmax and AUCtau", "setting": "[2]; once daily doses for 13 days, 10-100 μg", "result": "approximately dose-proportional increase"}, {"measurement": "time to steady-state", "setting": "[2]; once daily oral dosing, trough levels", "result": "≤ 4", "unit": "days"}, {"measurement": "in vitro potency between human and rat", "setting": "[3]", "result": "similar"}, {"measurement": "protein binding between human and rat", "setting": "[4]", "result": "similar"}]}]}
